B1: hCT1: Recombinant human CT1 protein; 201 amino acid sequence, GenBank Accession Nos AAD12173 and AAA85229 (human) (protein, UniProt Q16619 1-201, looked up)
Cardiotrophin-1: MSRREGSLEDPQTDSSVSLLPHLEAKIRQTHSLAHLLTKYAEQLLQEYVQLQGDPFGLPSFSPPRLPVAGLSAPAPSHAGLPVHERLRLDAAALAALPPLLDAVCRRQAELNPRAPRLLRRLEDAARQARALGAAVEALLAALGAANRGPRAEPPAATASAASATGVFPAKVLGLRVCGLYREWLSRTEGDLGQLLPGGSA

Experiments:
[1] = system: primary neonatal cardiomyocytes; assay: Morphometric analysis of stimulated primary neonatal cardiomyocytes (cell area, length:width ratio); format: cell-based; conditions: 24 hours stimulation, PE 100 μM; for cell areas increases: versus serum-free control
Procedure: FIGS. 1A and 1B. Morphometric analysis of primary cardiomyocytes stimulated with human Cardiotrophin-1 (hCT1) and/or the hypertrophy agonist Phenylephrine (PE).
Phenylephrine (PE) was used as a pathological adaptive compensation control as it is a known target of the stress-activated G-protein coupled alpha (α)-adrenergic pathway. Primary neonatal cardiomyocytes were stimulated for 24 hours with hCT1 (0.5 nM), PE (100 μM), the combination of hCT1 and PE, or control serum-free (SF) media followed by morphometric analysis (cell area and length:width ratio) (FIG. 1A). […] This CT-1 mediated growth is typical of the cardiomyocyte adaptations that occur during physiologic adaptive compensation with an L:W ratio that is divergent from PE induced growth.

STAT3 = STAT3 luciferase reporter in cardiomyocytes; format: cell-based; conditions: 30 minutes up to 24 hours; hCT1 0.5 nM, PE 100 μM, PAC-1 25 μM
Procedure: (§1) FIGS. 6A, 6B, and 6C. Stimulation with hCT1 causes sustained activation of NF-κB and Stat3 with limited activation of Mef2, as well as limited Nfat activation; the latter two indices are distinct expression patterns from pathologic hypertrophic stimulation. FIG. 6A Primary neonatal cardiomyocytes were transfected with luciferase reporter plasmids (NF-κB or Mef2), as indicators of hypertrophic activity. Luciferase activity was measured after treatments for 24 hrs with: hCT1 (0.5 nM), PE (100 μM), or procaspase 3 activating compound 1, PAC-1 (25 μM) (left). Treatments at early timepoints (30 min, 1 hr, and 3 hr) were also conducted for hCT1 (right). FIG. 6B Primary neonatal cardiomyocytes were transfected with a luciferase reporter plasmid for Stat3. Luciferase activity was measured after treatments for 24 hrs with: hCT1 (0.5 nM), PE (100 μM), or procaspase 3 activating compound 1, PAC-1 (25 μM) (left) and at earlier time points (right). FIG. 6C Primary neonatal cardiomyocytes were infected with a luciferase-based Nfat reporter Adenovirus (Nfat-AdV). Luciferase activity was measured after treatments for 24 hrs with: hCT1 (0.5 nM), PE (100 μM), or procaspase 3 activating compound 1, PAC-1 (25 μM) (left) and at earlier time points (right)
Moreover, it is reasonable to assume that CT-1 may moderate the activity of additional transcription factors, which further contribute to the adaptive compensation phenotype. As such, Applicants decided to test the hypothesis that STAT3 (Signal transducer and activator of transcription 3) dependent transcriptional activity is a specific determinant for CT-1 induced physiologic adaptive compensation. STAT3 phosphorylation and transcriptional activation is a response that is common to the Interleukin-6 cytokine family (of which CT-1 is a member), which is mediated through binding and activation of a JAK/gp130 (Janus kinase/[…]) receptor complex.

rats = assay: In vivo growth reversal analysis (ECHO, HW:BW, CD31 capillary density) after 2 week delivery and follow-on; set-up: species or system rat; conditions: for ventricle wall thickness at 2 weeks: CT-1 6 μg/kg/hr or PE 10 mg/kg/day for 2 weeks
From the text: FIGS. 3A, 3B, and 3C. […] Arrows (in upper panels) point to myocardial wall (RVLW). Dotted lines (in lower panels) show inner ventricle chambers.
FIGS. 4A and 4B. Beneficial/physiologic cardiac adaptive compensation and reversion to baseline cardiac dimensions is observed upon 2 weeks of hCT1 administration in vivo followed by hCT1 withdrawal for 4 weeks. Identical follow-on procedure and analysis as conducted in FIG. 3 above. FIG. 4A Whole hearts and Hematoxylin & Eosin (H & E) stained sections and quantification of the heart weight to body weight (HW:BW) ratio 6 weeks post-treatment with hCT1 or PE.
CT-1 was tested in vivo to determine whether its administration would induce a myocardial adaptive remodeling characteristic of physiologic compensation (FIGS. 3A, 3B, and 3C). Osmotic minipumps containing PBS control (Ctrl) or hCT1 (6 μg/kg/hr) or Isoproterenol (ISO, 1 mg/kg/day) were implanted subcutaneously in rats. ISO is a beta-adrenergic receptor agonist and continuous infusion with ISO in rats is known to induce pathological cardiac hypertrophy and cardiomyocyte damage (in both the right and left ventricles) which progresses to heart failure (Morisco et al (2001) J Mol Cell Cardiol 33:561-573 and Grimm et al (1998) Cardiovascular Research 37:91-100). After 2 weeks of treatment, M-mode ECHO analysis was used to assess myocardial structure/function (FIG. 3A). In this model, an increased right ventricle lateral wall (RVLW) thickness indicates the presence of myocardiocytes growth, and an increased ratio of the right to left ventricle internal diameters (RVID/LVID) is an indicator of pathologic hypertrophy. An increased RVLW thickness but constant or reduced RVID:LVID ratio is an indicator of adaptive compensatory RV remodeling. Both hCT1 and ISO induced a significant increase in RVLW thickness (12% and 32% fold increase, respectively) compared to control rats (n=3; * and **, P<0.05). […] An in vivo growth reversal analysis was also conducted. Following a 2 week delivery of CT-1 protein (6 μg/kg/hr) or PE (10 mg/kg/day) as the pathologic control in this case, animals were then assessed for cardiac structure/function at a 6 week follow-on period. […] Collectively, these studies support the contention that CT-1 elicits a reversible physiologic cardiac adaptive compensation.

NF-κB = NF-κB luciferase reporter in primary neonatal cardiomyocytes; format: cell-based; conditions: hCT1 0.5 nM
Procedure: as §1, with “FIG. 6C Primary neonatal cardiomyocytes were infected with a luciferase-based Nfat reporter Adenovirus (Nfat-AdV).” left out
The signaling pathways that CT-1 engages in mediating physiologic adaptive compensatory remodeling were examined. […] Primary neonatal cardiomyocytes were transfected with luciferase reporter plasmids (NF-κB and Mef2) to be used as a read out of transcriptional activity. […]

[2] = 2 week delivery, 6 week follow-on

Molecule	L:W ratio, in words [1]	cell areas increases ([1]; hCT1 0.5 nM) [%]	STAT3 activation (STAT3)	RVID/LVID ratio at 6 weeks post-treatment compared to control rats (rats; [2])	heart weight to body weight ratio at 6 weeks post-treatment (rats; [2])	wall thickness / cardiac dimensions at 6 weeks post-treatment (rats; [2])	cardiac capillary density (CD31 immunostained right ventricle sections) (rats; 6 weeks post-treatment, compared to CT-1 treated and control animals)	ventricle wall thickness at 2 weeks (rats)	L:W ratio (length to width ratio) ([1]; hCT1 0.5 nM) [%]	NF-κB luciferase activity at 1 hr and 3 hr (NF-κB)	NF-κB transcriptional activity at 24 hrs (NF-κB)
CNC[C@H](O)c1cccc(O)c1 [PE, Phenylephrine]	same or shortened L:W ratio	171	only minimal (if any) activation	maintained their increased RVID/LVID ratio	increased heart weight to body weight ratio	retaining the substantial increase in wall thickness	significant decrease in cardiac capillary density	increase in (both) ventricle wall thickness	–	–	–
B1	–	162	significant STAT3 activation	–	–	complete return to baseline cardiac dimensions for wall thickness	–	increase in (both) ventricle wall thickness	172	significant activation	sustained
